In brackets after ≈: the same amount, converted by molar mass.
Legend:
Assay type in all cases: functional
Conditions in all cases: read-out: ED50 (the source's name)
SK-OV-3 = assay: Cytotoxicity against human SKOV3 cells by SRB method
HCT-15 = assay: Cytotoxicity against human HCT15 cells by SRB method
A549 = assay: Cytotoxicity against human A549 cells by SRB method
XF498 = assay: Cytotoxicity against human XF498 cells by SRB method
SK-MEL-2 = assay: Cytotoxicity against human SK-MEL-2 cells by SRB method

## C=C[C@@]1(C)CC[C@H]2[C@]3(C)CCC[C@@](C)(C(=O)O)[C@H]3CC[C@]2(C)O1
SK-OV-3
  EC50: > 5 µg/mL
HCT-15
  EC50: > 5 µg/mL
A549
  EC50: > 5 µg/mL
XF498
  EC50: > 5 µg/mL
SK-MEL-2
  EC50: > 5 µg/mL

## C=C[C@@](C)(CC[C@@H]1[C@@]2(C)CCCC(C)(C)[C@@H]2CC[C@@]1(C)O)O[C@H]1O[C@H](C)[C@H](O)[C@@H](O)[C@@H]1O
SK-OV-3
  EC50: > 5 µg/mL
HCT-15
  EC50: > 5 µg/mL
A549
  EC50: > 5 µg/mL
XF498
  EC50: > 5 µg/mL
SK-MEL-2
  EC50: > 5 µg/mL

## C=C[C@@](C)(CC[C@H]1C(C)=CC[C@H]2C(C)(C)CCC[C@]12C)O[C@@H]1O[C@@H](C)[C@@H](O)[C@H](O)[C@H]1O
SK-OV-3
  EC50: 5.7 µg/mL (≈ 13.1 µM)
HCT-15
  EC50: 3.2 µg/mL (≈ 7.33 µM)
A549
  EC50: 3.9 µg/mL (≈ 8.93 µM)
XF498
  EC50: 8.9 µg/mL (≈ 20.4 µM)
SK-MEL-2
  EC50: 4.2 µg/mL (≈ 9.62 µM)

## C=C[C@](C)(O)CC[C@H]1C(C)=CC[C@H]2C(C)(C)CCC[C@]12C
SK-OV-3
  EC50: 8.7 µg/mL (≈ 29.9 µM)
HCT-15
  EC50: 9.1 µg/mL (≈ 31.3 µM)
A549
  EC50: 2.4 µg/mL (≈ 8.26 µM)
XF498
  EC50: 9.5 µg/mL (≈ 32.7 µM)
SK-MEL-2
  EC50: 4.4 µg/mL (≈ 15.1 µM)

## C=C[C@@](C)(CC[C@H]1C(C)=CC[C@H]2C(C)(C)CCC[C@]12C)O[C@@H]1O[C@H](C)[C@H](O)[C@H](OC(C)=O)[C@H]1O
SK-OV-3
  EC50: 3.8 µg/mL (≈ 7.94 µM)
HCT-15
  EC50: 3.8 µg/mL (≈ 7.94 µM)
A549
  EC50: 3.6 µg/mL (≈ 7.52 µM)
XF498
  EC50: 5.1 µg/mL (≈ 10.7 µM)
SK-MEL-2
  EC50: 3.5 µg/mL (≈ 7.31 µM)

## C=C[C@@](C)(CC[C@H]1C(C)=CC[C@H]2C(C)(C)CCC[C@]12C)O[C@@H]1O[C@H](C)[C@H](O)[C@H](O)[C@H]1O
SK-OV-3
  EC50: 3.6 µg/mL (≈ 8.24 µM)
HCT-15
  EC50: 3.9 µg/mL (≈ 8.93 µM)
A549
  EC50: 3.5 µg/mL (≈ 8.02 µM)
XF498
  EC50: 4.2 µg/mL (≈ 9.62 µM)
SK-MEL-2
  EC50: 3.5 µg/mL (≈ 8.02 µM)

## COc1cc([C@@H]2c3cc4c(cc3[C@@H](O[C@@H]3O[C@@H]5CO[C@@H](C)O[C@H]5[C@H](O)[C@H]3O)[C@H]3COC(=O)[C@H]23)OCO4)cc(OC)c1O [ETOPOSIDE]
SK-OV-3
  EC50: 2.7 µg/mL (≈ 4.59 µM)
HCT-15
  EC50: 2.2 µg/mL (≈ 3.74 µM)
A549
  EC50: 1.5 µg/mL (≈ 2.55 µM)
XF498
  EC50: 2.6 µg/mL (≈ 4.42 µM)
SK-MEL-2
  EC50: 0.08 µg/mL (≈ 0.136 µM)

## C=C[C@@](C)(O)CC[C@@H]1[C@@]2(C)CCCC(C)(C)[C@@H]2CC[C@@]1(C)O
SK-OV-3
  EC50: > 5 µg/mL
HCT-15
  EC50: > 5 µg/mL
A549
  EC50: > 5 µg/mL
XF498
  EC50: > 5 µg/mL
SK-MEL-2
  EC50: > 5 µg/mL

## C=C[C@](C)(O)CC[C@H]1C(=C)[C@H](O)C[C@H]2C(C)(C)CCC[C@]12C
SK-OV-3
  EC50: > 5 µg/mL
HCT-15
  EC50: > 5 µg/mL
A549
  EC50: > 5 µg/mL
XF498
  EC50: > 5 µg/mL
SK-MEL-2
  EC50: > 5 µg/mL

## C=C[C@@](C)(CC[C@H]1C(C)=CC[C@H]2C(C)(C)CCC[C@]12C)O[C@@H]1O[C@H](C)[C@H](OC(C)=O)[C@H](O)[C@H]1O
SK-OV-3
  EC50: 5.8 µg/mL (≈ 12.1 µM)
HCT-15
  EC50: 4.1 µg/mL (≈ 8.57 µM)
A549
  EC50: 3.9 µg/mL (≈ 8.15 µM)
XF498
  EC50: 8.9 µg/mL (≈ 18.6 µM)
SK-MEL-2
  EC50: 3.4 µg/mL (≈ 7.1 µM)

## C=C[C@@](C)(CC[C@H]1C(C)=CC[C@H]2C(C)(C)CCC[C@]12C)O[C@@H]1O[C@@H](C)[C@@H](OC(C)=O)[C@H](O)[C@H]1O
SK-OV-3
  EC50: 3.4 µg/mL (≈ 7.1 µM)
HCT-15
  EC50: 3.1 µg/mL (≈ 6.48 µM)
A549
  EC50: 3.2 µg/mL (≈ 6.69 µM)
XF498
  EC50: 3.8 µg/mL (≈ 7.94 µM)
SK-MEL-2
  EC50: 3.5 µg/mL (≈ 7.31 µM)

## C=C[C@@](C)(CC[C@@H]1[C@@]2(C)CCCC(C)(C)[C@@H]2CC[C@@]1(C)O)O[C@@H]1O[C@H](C)[C@H](O)[C@H](O)[C@H]1O
SK-OV-3
  EC50: > 5 µg/mL
HCT-15
  EC50: > 5 µg/mL
A549
  EC50: > 5 µg/mL
XF498
  EC50: > 5 µg/mL
SK-MEL-2
  EC50: > 5 µg/mL

## COc1cccc2c1C(=O)c1c(O)c3c(c(O)c1C2=O)C[C@@](O)(C(=O)CO)C[C@@H]3O[C@H]1C[C@H](N)[C@H](O)[C@H](C)O1 [DOXORUBICIN]
SK-OV-3
  EC50: 0.12 µg/mL (≈ 0.221 µM)
HCT-15
  EC50: 0.35 µg/mL (≈ 0.644 µM)
A549
  EC50: 0.012 µg/mL (≈ 0.0221 µM)
XF498
  EC50: 0.01 µg/mL (≈ 0.0184 µM)
SK-MEL-2
  EC50: 0.003 µg/mL (≈ 0.00552 µM)

From ChEMBL document CHEMBL1151262, “Labdane diterpenes from Aster spathulifolius and their cytotoxic effects on human cancer cell lines” (2005)
